From patent US20240067632A1, “WEE1 Degrading Compounds and Uses Thereof” (Bristol-Myers Squibb Company, priority 2022, published 2024)
Like-named read-outs stand apart in the source and are kept apart here.

How the values were obtained:
MKN45 cells = test: MKN45 cell proliferation assay (Cell-Titer-Glo, 120 h); type: cell-based; conditions: for EC50: Homo sapiens, MKN-45, 120 h, Cell-Titer-Glo, read-out: MKN45 Cell Prolif. 120 hr (EC50); for MKN45 Cell Prolif. 120 hr (Ymin-Obs): minimal percent of DMSO control observed in the concentrations tested
Summary of the method: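 Growth inhibition was read as blank-corrected Cell-Titer-Glo luminescence expressed as percent DMSO control after 120 h at 37 C, 400 cells/well. Compounds tested in triplicate as 10-point half-log series from 1 or 10 uM, 0.1% DMSO; four-parameter fit gave EC50, and lowest observed percent control was reported as Ymin-obs.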

WEE1 = molecular target: T1, WEE1 (Homo sapiens, UniProt P30291+Q96SW2); test: WEE1-ePL degradation assay (LentiX-WEE1-ePL-GSPT1-ND cells, InCELL Hunter luminescence, 4 h); type: cell-based; conditions: 293T-LentiX WEE1-ePL cells; for DC50: read-out: 293T-LentiX WEE1-ePL Degradation 4 hr (EC50)
T1 construct: C-terminal ePL-tagged (DiscoverX, Fremont, CA) full-length WEE1 expression construct; expressed in transfected cells; host or cells: LentiX-HEK293T (Invitrogen), lentiviral transduction; co-expressing GSPT1-GN (G576N, lacking the first 158 amino acids)
Summary of the method: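 HEK293T cells stably expressing C-terminal ePL-tagged full-length WEE1, 2500 cells/well, treated 4 h at 37° C with a 10-point 3-fold series from 1 or 10 uM. Remaining WEE1-ePL read by InCELL Hunter luminescence after 30 min. EC50 came from a four-parameter logistic fit, with Ymax set from DMSO control.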

[1] = lower limit of the fit (0 = luciferase inhibitor, Ymax = DMSO control)
[2] = lower limit of the fit (Ymin=0 luciferase inhibitor, Ymax DMSO control)

| Compound | EC50 (MKN45 cells; growth inhibition) [nM] | MKN45 Cell Prolif. 120 hr (Ymin-Obs) (MKN45 cells) | 293T-LentiX WEE1-ePL Degradation 4 hr (Ymin) (WEE1; [1]) | DC50 (WEE1) [nM] | EC50 (MKN45 cells) [nM] | 293T-LentiX WEE1-ePL Degradation 4 hr (Ymin) (WEE1; [2]) |
| --- | --- | --- | --- | --- | --- | --- |
| N#Cc1ccc2cc(CN3CC[C@H](Oc4cc(F)c5c(c4)CN(C4CCC(=O)NC4=O)C5=O)C3)ccc2n1 (stereo partly drawn) [6-{[(3S)-3-{[2-(2,6-dioxopiperidin-3-yl)-7-fluoro-1-oxo-2,3-dihydro-1H-isoindol-5-yl]oxy}pyrrolidin-1-yl]methyl}quinoline-2-carbonitrile] | > 10000 | 84.865 | 100.5 | – | – | – |
| N#Cc1ccc2cc(CN3C[C@@H](Oc4ccc5c(c4)CN(C4CCC(=O)NC4=O)C5=O)C(F)(F)C3)ccc2n1 (stereo partly drawn) [6-{[(4R)-4-{[2-(2,6-dioxopiperidin-3-yl)-1-oxo-2,3-dihydro-1H-isoindol-5-yl]oxy}-3,3-difluoropyrrolidin-1-yl]methyl}quinoline-2-carbonitrile] | 22.9 | 22.8 | 30.83 | 20.2 | – | – |
| O=C1CC[C@@H](N2Cc3cc(O[C@H]4CCN(Cc5ccc6ncccc6c5)C4)ccc3C2=O)C(=O)N1 [(3R)-3-(1-oxo-5-{[(3S)-1-[(quinolin-6-yl)methyl]pyrrolidin-3-yl]oxy}-2,3-dihydro-1H-isoindol-2-yl)piperidine-2,6-dione] | 26.5 | 12.45 | 26.94 | 3.55 | – | – |
| O=C1CC[C@@H](N2Cc3cc(O[C@H]4CCN(Cc5ccc6nc(N7CCOCC7)ncc6c5)C4)ccc3C2=O)C(=O)N1 [(3R)-3-(5-{[(3S)-1-{[2-(morpholin-4-yl)quinazolin-6-yl]methyl}pyrrolidin-3-yl]oxy}-1-oxo-2,3-dihydro-1H-isoindol-2-yl)piperidine-2,6-dione] | – | 17.43 | – | 46.3 | 23.8 | 31.07 |
| O=C1CC[C@@H](N2Cc3cc(O[C@H]4CCN(Cc5ccc6nc(C7CCOCC7)ccc6c5)C4)ccc3C2=O)C(=O)N1 [(3R)-3-(5-{[(3S)-1-{[2-(oxan-4-yl)quinolin-6-yl]methyl}pyrrolidin-3-yl]oxy}-1-oxo-2,3-dihydro-1H-isoindol-2-yl)piperidine-2,6-dione] | 6.12 | 9.677 | 33 | 6.75 | – | – |
| O=C1CC[C@@H](N2Cc3cc(O[C@H]4CCN(Cc5cc(F)c6nc(C7CCOCC7)ccc6c5)C4)ccc3C2=O)C(=O)N1 [(3R)-3-(5-{[(3S)-1-{[8-fluoro-2-(oxan-4-yl)quinolin-6-yl]methyl}pyrrolidin-3-yl]oxy}-1-oxo-2,3-dihydro-1H-isoindol-2-yl)piperidine-2,6-dione] | – | 9.2 | – | 9.49 | 2.19 | 32.17 |
| O=C1CC[C@H](N2Cc3cc(O[C@H]4CCN(Cc5ccc6nc([C@H]7CCOC7)ncc6c5)C4)ccc3C2=O)C(=O)N1 [(3S)-3-(1-oxo-5-{[(3S)-1-({2-[(3R)-oxolan-3-yl]quinazolin-6-yl}methyl)pyrrolidin-3-yl]oxy}-2,3-dihydro-1H-isoindol-2-yl)piperidine-2,6-dione] | 14.6 | 8.266 | 31 | 17.8 | – | – |
| O=C1CC[C@H](N2Cc3cc(O[C@H]4CCN(Cc5ccc6nc([C@H]7CCOC7)ccc6c5)C4)ccc3C2=O)C(=O)N1 [(3S)-3-(1-oxo-5-{[(3S)-1-({2-[(3R)-oxolan-3-yl]quinolin-6-yl}methyl)pyrrolidin-3-yl]oxy}-2,3-dihydro-1H-isoindol-2-yl)piperidine-2,6-dione] | 2.68 | 8.547 | 35.5 | 2.59 | – | – |
| O=C1CC[C@H](N2Cc3cc(O[C@H]4CCN(Cc5ccc6nc([C@@H]7CCOC7)ccc6c5)C4)ccc3C2=O)C(=O)N1 [(3S)-3-(1-oxo-5-{[(3S)-1-({2-[(3S)-oxolan-3-yl]quinolin-6-yl}methyl)pyrrolidin-3-yl]oxy}-2,3-dihydro-1H-isoindol-2-yl)piperidine-2,6-dione] | 4.09 | 9.489 | 30 | 2.13 | – | – |
| O=C1CC[C@H](N2Cc3cc(O[C@H]4CCN(Cc5ccc6ncccc6c5)C4)ccc3C2=O)C(=O)N1 [(3S)-3-(1-oxo-5-{[(3S)-1-[(quinolin-6-yl)methyl]pyrrolidin-3-yl]oxy}-2,3-dihydro-1H-isoindol-2-yl)piperidine-2,6-dione] | 31.4 | 12.265 | 26.52 | 7.42 | – | – |
| O=C1CC[C@H](N2Cc3cc(O[C@H]4CCN(Cc5ccc6nc(N7CCCC7=O)ccc6c5)C4)ccc3C2=O)C(=O)N1 [(3S)-3-(1-oxo-5-{[(3S)-1-{[2-(2-oxopyrrolidin-1-yl)quinolin-6-yl]methyl}pyrrolidin-3-yl]oxy}-2,3-dihydro-1H-isoindol-2-yl)piperidine-2,6-dione] | 2.82 | 8.56 | 40 | 1.51 | – | – |
| O=C1CC[C@H](N2Cc3cc(O[C@H]4CCN(Cc5ccc6nc(N7CCCC7)ncc6c5)C4)ccc3C2=O)C(=O)N1 [(3S)-3-(1-oxo-5-{[(3S)-1-{[2-(pyrrolidin-1-yl)quinazolin-6-yl]methyl}pyrrolidin-3-yl]oxy}-2,3-dihydro-1H-isoindol-2-yl)piperidine-2,6-dione] | – | 21.92 | – | 6.04 | 26.9 | 43.18 |
| O=C1CC[C@H](N2Cc3cc(O[C@@H]4CN(Cc5ccc6nc([C@H]7CCOC7)ccc6c5)CC4(F)F)ccc3C2=O)C(=O)N1 [(3S)-3-(5-{[(3R)-4,4-difluoro-1-({2-[(3R)-oxolan-3-yl]quinolin-6-yl}methyl)pyrrolidin-3-yl]oxy}-1-oxo-2,3-dihydro-1H-isoindol-2-yl)piperidine-2,6-dione] | – | 8.319 | – | 11.7 | 7.63 | 28.37 |
| O=C1CC[C@H](N2Cc3cc(O[C@@H]4CN(Cc5ccc6nc([C@@H]7CCOC7)ccc6c5)CC4(F)F)ccc3C2=O)C(=O)N1 [(3S)-3-(5-{[(3R)-4,4-difluoro-1-({2-[(3S)-oxolan-3-yl]quinolin-6-yl}methyl)pyrrolidin-3-yl]oxy}-1-oxo-2,3-dihydro-1H-isoindol-2-yl)piperidine-2,6-dione] | – | 8.017 | – | 8.72 | 6.36 | 30.03 |
| O=C1CC[C@H](N2Cc3cc(O[C@@H]4CN(Cc5ccc6nc(C7CCOCC7)ncc6c5)CC4(F)F)ccc3C2=O)C(=O)N1 [(3S)-3-(5-{[(3R)-4,4-difluoro-1-{[2-(oxan-4-yl)quinazolin-6-yl]methyl}pyrrolidin-3-yl]oxy}-1-oxo-2,3-dihydro-1H-isoindol-2-yl)piperidine-2,6-dione] | – | 10.37 | – | 105 | 45.8 | 22.61 |
| O=C1CC[C@H](N2Cc3cc(O[C@@H]4CN(Cc5cc6ccc(C7CCOCC7)cc6cn5)CC4(F)F)ccc3C2=O)C(=O)N1 [(3S)-3-(5-{[(3R)-4,4-difluoro-1-{[7-(oxan-4-yl)isoquinolin-3-yl]methyl}pyrrolidin-3-yl]oxy}-1-oxo-2,3-dihydro-1H-isoindol-2-yl)piperidine-2,6-dione] | – | 9.546 | – | 2.76 | 2.17 | 26.77 |
